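Cells were grown in 96-well plates and exposed to each compound for 48 hours at five concentrations; endpoints were interpolated linearly between bracketing concentrations, or set to the highest concentration if not reached. GI50: concentration for 50% inhibition of growth.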 Active and inactive are the calls of the source. No stated cut-off is given here; in the data, active = GI50 up to about 1.1 µM and inactive = higher.
What was measured:
Assay in all cases: NCI-60 cell line screen, 48 h
[1] = system: U-251
[2] = system: HCT-116
[3] = system: SN12C
[4] = system: OVCAR-4
[5] = system: XF498
[6] = system: M14
[7] = system: NCI-H522
[8] = system: 786-0
[9] = system: SR
[10] = system: OVCAR-3
[11] = system: SK-OV-3
[12] = system: SNB-78
[13] = system: UACC-257
[14] = system: UO-31
[15] = system: COLO 205
[16] = system: RXF 393
[17] = system: KM-20L2
[18] = system: NCI-H460
[19] = system: HT-29
[20] = system: IGROV-1
[21] = system: KM12
[22] = system: CAKI-1
[23] = system: ACHN
[24] = system: HOP-62
[25] = system: UACC-62
[26] = system: SK-MEL-5
[27] = system: CCRF-CEM
[28] = system: SF-539
[29] = system: K562
[30] = system: SK-MEL-28
[31] = system: M19-MEL
[32] = system: SNB-19
[33] = system: HCT-15
[34] = system: OVCAR-8
[35] = system: SW-620
[36] = system: RPMI-8226
[37] = system: SNB-75
[38] = system: A549
[39] = system: DLD-1
[40] = system: NCI-H23
[41] = system: A498
[42] = system: NCI-H226
[43] = system: DMS-114
[44] = system: EKVX
[45] = system: SF-295
[46] = system: SK-MEL-2
[47] = system: HL-60
[48] = system: HCC 2998
[49] = system: RXF 631
[50] = system: TK-10
[51] = system: LXFL 529
[52] = system: Malme-3M
[53] = system: MOLT-4
[54] = system: OVCAR-5
[55] = system: LOX IMVI
[56] = system: SF-268
[57] = system: HOP-92
[58] = system: DMS-273

CCOC(=O)N[C@H]1CCc2cc(O)c(OC)c(OC)c2-c2ccc(SC)c(=O)cc21
GI50 [1]: < 16.2 nM (active)
GI50 [2]: < 13.8 nM (active)
GI50 [3]: 46 nM (active)
GI50 [4]: 8000 nM (inactive)
GI50 [5]: 26.1 nM (active)
GI50 [6]: < 10 nM (active)
GI50 [7]: 17.7 nM (active)
GI50 [8]: 30.4 nM (active)
GI50 [9]: 34.5 nM (active)
GI50 [10]: 12.3 nM (active)
GI50 [11]: 240 nM (active)
GI50 [12]: < 10 nM (active)
GI50 [13]: < 49.1 nM (active)
GI50 [14]: 736 nM (active)
GI50 [15]: 141 nM (active)
GI50 [16]: < 10 nM (active)
GI50 [17]: 12.8 nM (active)
GI50 [18]: 17.2 nM (active)
GI50 [19]: < 13.5 nM (active)
GI50 [20]: 47.9 nM (active)
GI50 [21]: 15.4 nM (active)
GI50 [22]: 26.6 nM (active)
GI50 [23]: 69 nM (active)
GI50 [24]: 38.6 nM (active)
GI50 [25]: < 14.4 nM (active)
GI50 [26]: 12.7 nM (active)
GI50 [27]: < 13.9 nM (active)
GI50 [28]: 13.7 nM (active)
GI50 [29]: 13.6 nM (active)
GI50 [30]: < 29 nM (active)
GI50 [31]: 18.9 nM (active)
GI50 [32]: 28.2 nM (active)
GI50 [33]: 32.3 nM
GI50 [34]: 30.1 nM (active)
GI50 [35]: < 13.7 nM (active)
GI50 [36]: < 13.5 nM (active)
GI50 [37]: < 10 nM (active)
GI50 [38]: 28.9 nM (active)
GI50 [39]: 35.1 nM (active)
GI50 [40]: 15.7 nM (active)
GI50 [41]: 20.8 nM (active)
GI50 [42]: 266 nM (active)
GI50 [43]: 19.3 nM (active)
GI50 [44]: 483 nM (active)
GI50 [45]: 12.3 nM (active)
GI50 [46]: < 14.9 nM (active)
GI50 [47]: < 10 nM (active)
GI50 [48]: 113 nM (active)
GI50 [49]: 20.7 nM (active)
GI50 [50]: 394 nM (active)
GI50 [51]: < 12.2 nM (active)
GI50 [52]: 11.1 nM (active)
GI50 [53]: 30 nM (active)
GI50 [54]: 614 nM (active)
GI50 [55]: 23.4 nM (active)
GI50 [56]: 20.7 nM (active)
GI50 [57]: 10.3 nM (active)
GI50 [58]: 14.9 nM (active)

Cc1ccc(NC(=O)CC(=O)n2nc(C)c(/N=N/c3ccccc3C(=O)O)c2C)cc1
GI50 [1]: > 100000 nM (inactive)
GI50 [2]: > 100000 nM (inactive)
GI50 [3]: > 100000 nM (inactive)
GI50 [4]: > 100000 nM (inactive)
GI50 [5]: > 100000 nM (inactive)
GI50 [6]: > 100000 nM (inactive)
GI50 [7]: > 100000 nM (inactive)
GI50 [8]: > 100000 nM (inactive)
GI50 [10]: > 100000 nM (inactive)
GI50 [11]: > 100000 nM (inactive)
GI50 [12]: > 100000 nM (inactive)
GI50 [13]: > 100000 nM (inactive)
GI50 [14]: > 100000 nM (inactive)
GI50 [15]: > 100000 nM (inactive)
GI50 [17]: > 100000 nM (inactive)
GI50 [18]: > 100000 nM (inactive)
GI50 [19]: > 100000 nM (inactive)
GI50 [20]: > 100000 nM (inactive)
GI50 [21]: > 100000 nM (inactive)
GI50 [22]: > 100000 nM (inactive)
GI50 [24]: > 100000 nM (inactive)
GI50 [25]: > 100000 nM (inactive)
GI50 [26]: > 100000 nM (inactive)
GI50 [27]: > 100000 nM (inactive)
GI50 [28]: > 100000 nM (inactive)
GI50 [29]: > 100000 nM (inactive)
GI50 [30]: > 100000 nM (inactive)
GI50 [31]: > 100000 nM (inactive)
GI50 [32]: > 100000 nM (inactive)
GI50 [33]: > 100000 nM
GI50 [34]: > 100000 nM (inactive)
GI50 [35]: > 100000 nM (inactive)
GI50 [36]: > 100000 nM (inactive)
GI50 [37]: 89100 nM (inactive)
GI50 [38]: > 100000 nM (inactive)
GI50 [39]: > 100000 nM (inactive)
GI50 [40]: > 100000 nM (inactive)
GI50 [41]: > 100000 nM (inactive)
GI50 [43]: > 100000 nM (inactive)
GI50 [44]: > 100000 nM (inactive)
GI50 [45]: > 100000 nM (inactive)
GI50 [46]: > 100000 nM (inactive)
GI50 [47]: > 100000 nM (inactive)
GI50 [48]: > 100000 nM (inactive)
GI50 [49]: > 100000 nM (inactive)
GI50 [50]: > 100000 nM (inactive)
GI50 [51]: > 100000 nM (inactive)
GI50 [52]: > 100000 nM (inactive)
GI50 [53]: > 100000 nM (inactive)
GI50 [54]: > 100000 nM (inactive)
GI50 [55]: > 100000 nM (inactive)
GI50 [56]: > 100000 nM (inactive)
GI50 [58]: > 100000 nM (inactive)
